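Interpolation was linear, between the two tested concentrations surrounding the appropriate level; five concentrations were tested over 48 hours in 96-well plates. GI50 is the concentration that inhibits growth by half.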 Active and inactive are the calls of the source. Rule as the data show it: active = GI50 up to about 1.1 µM and inactive = higher.
Experiments:
Assay in all cases: inhibition of tumour cell growth, NCI panel, 48 h
ACHN = system: ACHN
BT-549 = system: BT-549
HCC 2998 = system: HCC 2998
HCT-15 = system: HCT-15
HL-60 = system: HL-60
HT-29 = system: HT-29
LOX IMVI = system: LOX IMVI
M14 = system: M14
MCF7 = system: MCF7
MDA-N = system: MDA-N
MOLT-4 = system: MOLT-4
NCI/ADR-RES = system: NCI/ADR-RES
PC-3 = system: PC-3
SF-268 = system: SF-268
SK-MEL-2 = system: SK-MEL-2
SR = system: SR
TK-10 = system: TK-10
U-251 = system: U-251
UO-31 = system: UO-31

Compound	GI50 (ACHN)	GI50 (BT-549)	GI50 (HCC 2998)	GI50 (HCT-15) [µM]	GI50 (HL-60)	GI50 (HT-29)	GI50 (LOX IMVI)	GI50 (M14)	GI50 (MCF7)	GI50 (MDA-N)	GI50 (MOLT-4)	GI50 (NCI/ADR-RES)	GI50 (PC-3)	GI50 (SF-268)	GI50 (SK-MEL-2)	GI50 (SR)	GI50 (TK-10)	GI50 (U-251)	GI50 (UO-31)
COC(=O)[C@H](CCSC)NC(=O)N[C@H](C)c1ccccc1	> 100 µM (inactive)	> 100 µM (inactive)	> 100 µM (inactive)	> 100	> 100 µM (inactive)	> 100 µM (inactive)	> 100 µM (inactive)	> 100 µM (inactive)	> 100 µM (inactive)	> 100 µM (inactive)	> 100 µM (inactive)	60.7 µM (inactive)	> 100 µM (inactive)	> 100 µM (inactive)	> 100 µM (inactive)	> 100 µM (inactive)	> 100 µM (inactive)	> 100 µM (inactive)	> 100 µM (inactive)
Cc1ccc(S(=O)(=O)n2cc(-c3cnc(N)c(Br)n3)c3ccccc32)cc1	5.46 µM (inactive)	22.7 µM (inactive)	3.29 µM (inactive)	1.21	0.372 µM (active)	1.47 µM (inactive)	2.94 µM (inactive)	1.37 µM (inactive)	0.757 µM (active)	0.246 µM (active)	0.977 µM (active)	2.04 µM (inactive)	2.92 µM (inactive)	2.96 µM (inactive)	10.8 µM (inactive)	0.764 µM (active)	11.4 µM (inactive)	0.902 µM (active)	4.18 µM (inactive)
C#CCn1ncc2c(SCc3ccccc3)ncnc21	> 100 µM (inactive)	> 100 µM (inactive)	> 100 µM (inactive)	> 100		> 100 µM (inactive)	> 100 µM (inactive)	50.7 µM (inactive)	11.4 µM (inactive)	> 100 µM (inactive)	11.8 µM (inactive)	> 100 µM (inactive)	86.1 µM (inactive)	> 100 µM (inactive)	> 100 µM (inactive)	18.8 µM (inactive)	> 100 µM (inactive)	> 100 µM (inactive)	89.7 µM (inactive)
C=C1CCCC(C)(C)C1CCC1(C)CCC(C(C)C(=O)OC)OO1 (stereo unspecified)	1.27 µM (inactive)	4.9 µM (inactive)	4.37 µM (inactive)	15.5	2.21 µM (inactive)	2.04 µM (inactive)	0.471 µM (active)	9.66 µM (inactive)	> 21.5 µM (inactive)	3.73 µM (inactive)	8.11 µM (inactive)	7.08 µM (inactive)	3.74 µM (inactive)	3.57 µM (inactive)	10.8 µM (inactive)	3.02 µM (inactive)	4.28 µM (inactive)	2.94 µM (inactive)	0.748 µM (active)
N#Cc1c(-c2ccc(F)cc2)c(-c2ccc(F)cc2)nn(CCO)c1=O	0.413 µM (active)	0.879 µM (active)	0.605 µM (active)	0.132	0.091 µM (active)	0.143 µM (active)			3.16 µM (inactive)	0.0492 µM (active)	0.242 µM (active)	0.805 µM (active)	0.416 µM (active)	0.875 µM (active)	< 0.01 µM (active)	0.2 µM (active)	3.36 µM (inactive)	0.178 µM (active)	1.38 µM (inactive)
C=CC(Cl)(CBr)CCC(Br)=C(C)C (stereo unspecified)	21.6 µM (inactive)	21.5 µM (inactive)	23.6 µM (inactive)	10.4		19.5 µM (inactive)	15.7 µM (inactive)	25.5 µM (inactive)	14.2 µM (inactive)	19.4 µM (inactive)	> 100 µM (inactive)	28.8 µM (inactive)	21.3 µM (inactive)	21 µM (inactive)	16.6 µM (inactive)	21.7 µM (inactive)	26.3 µM (inactive)	16.9 µM (inactive)	18.8 µM (inactive)
O=c1c2cc(-c3ccccc3)sc2nc2n1N=C(c1ccc(Cl)cc1)CS2	> 100 µM (inactive)	> 100 µM (inactive)	> 100 µM (inactive)	> 100	> 100 µM (inactive)	> 100 µM (inactive)	> 100 µM (inactive)		> 100 µM (inactive)	> 100 µM (inactive)	> 100 µM (inactive)	> 100 µM (inactive)	> 100 µM (inactive)	> 100 µM (inactive)		> 100 µM (inactive)	> 100 µM (inactive)	> 100 µM (inactive)	> 100 µM (inactive)
Cc1cc(Cl)nc(Nc2nc3ccccc3[nH]2)n1	> 100 µM (inactive)	> 100 µM (inactive)	> 100 µM (inactive)	> 100	> 100 µM (inactive)	> 100 µM (inactive)	> 100 µM (inactive)	> 100 µM (inactive)	> 100 µM (inactive)	> 100 µM (inactive)		> 100 µM (inactive)	> 100 µM (inactive)	> 100 µM (inactive)	> 100 µM (inactive)	32.1 µM (inactive)	> 100 µM (inactive)	> 100 µM (inactive)	> 100 µM (inactive)
O=c1[nH]cc(/N=C/c2cc(Cl)cc(Cl)c2O)c(=O)[nH]1	36.3 µM (inactive)	45.1 µM (inactive)	33.3 µM (inactive)	36.4	13.6 µM (inactive)	26.5 µM (inactive)		21 µM (inactive)	25.8 µM (inactive)	29.2 µM (inactive)	21.9 µM (inactive)	21.8 µM (inactive)	27.8 µM (inactive)	14.2 µM (inactive)	19.3 µM (inactive)	14.3 µM (inactive)	> 100 µM (inactive)	32.7 µM (inactive)	29.5 µM (inactive)
CCCCC1(NN=C2CCCCC2)C(=O)N(c2ccccc2)N(c2ccccc2)C1=O	> 100 µM (inactive)	> 100 µM (inactive)	> 100 µM (inactive)	> 100	18.1 µM (inactive)	> 100 µM (inactive)		> 100 µM (inactive)	> 100 µM (inactive)	> 100 µM (inactive)	26.2 µM (inactive)	> 100 µM (inactive)	> 100 µM (inactive)	> 100 µM (inactive)		17.3 µM (inactive)	> 100 µM (inactive)	> 100 µM (inactive)	> 100 µM (inactive)
CC(C)NC(=O)OCc1c(COC(=O)NC(C)C)c(-c2cc[n+](COC(=O)CC(C)(C)C)cc2)n2c1CCC2		> 100 µM (inactive)	> 100 µM (inactive)	> 100	> 100 µM (inactive)			> 100 µM (inactive)	> 100 µM (inactive)	> 100 µM (inactive)	> 100 µM (inactive)	> 100 µM (inactive)	> 100 µM (inactive)			42.4 µM (inactive)		> 100 µM (inactive)	> 100 µM (inactive)
O=C(CSc1n[nH]c(=O)[nH]c1=O)NNC(=O)c1cccc2nc3ccccc3nc12	> 100 µM (inactive)	29.2 µM (inactive)	40.8 µM (inactive)	72.8	> 100 µM (inactive)	49.4 µM (inactive)	46.1 µM (inactive)	68.1 µM (inactive)	38.2 µM (inactive)	35.6 µM (inactive)	> 100 µM (inactive)	> 100 µM (inactive)	> 100 µM (inactive)	> 100 µM (inactive)	> 100 µM (inactive)	> 100 µM (inactive)	> 100 µM (inactive)	> 100 µM (inactive)	

Source: ChEMBL document CHEMBL1201862, “PubChem BioAssay data set” (2004)
